Results reported in patent US20170152245A1 (National Taiwan University, priority 2015, published 2017).
Read-outs that look alike come from different tables or passages of the source.

Assays:
[1] = system: human platelet-rich plasma; experiment: Collagen-induced platelet aggregation in human platelet-rich plasma; assay type: cell-based
Description: (§1) Human platelet suspension (PS) was prepared according to the method described previously. Briefly, blood sample, freshly obtained from healthy volunteers who had taken no medications during the preceding 2 weeks, was treated with acid citrate/dextrose (ACD) in a volume ratio of 9:1. After centrifugation at 120 g, 25° C. for 9 min, platelet-rich plasma was transferred into another plastic tube and incubated with heparin (6.4 U/ml) as well as prostaglandin E1 (1 μM). Platelets were spun down by centrifugation at 500 g, 25° C. for 8 min and subsequently washed two times with Tyrode solution (NaH2PO4 0.4 mM; NaCl 136.9 mM; KCl […]; NaHCO3 11.9 mM; CaCl2 2 mM; MgCl2 2.1 mM; glucose 11.1 mM; BSA 3.5 mg/ml; pH 7.35-7.4). The washed platelets were finally suspended in Tyrode's solution and the platelet count was adjusted to 3.75×10^8 platelets/ml. For platelet-rich plasma (PRP) preparation, whole blood was anticoagulated with 1/10 vol of sodium citrate (3.8%, w/v) and centrifuged at 150 g, 25° C. for 9 min.
(§2) Platelet aggregation was measured turbidimetrically with a Lumi-aggregometer (Payton Scientific) at 37° C. under stirring condition (900 rpm). Platelet suspensions were prewarmed to 37° C. for 2 min in a silicone-treated glass cuvette. Nstpbp5185 was added 3 min before the addition of platelet-aggregation inducers. The extent of platelet aggregation was determined by recording the increase of light transmission relative to that of control (maximal aggregation, as 100%) for 6 min after the addition of inducer. The final volume and platelet count for measuring platelet aggregation were 500 μl and 3×10^8/ml, respectively.

[2] = system: mesenteric venules of mice; experiment: Fluorescein sodium-induced platelet thrombus formation in mesenteric venules of mice; assay type: in vivo; details: for average time to occlusion (TTO): 10 μg/g i.v., mice; for occlusion time: i.v., 5 min after administration
Description: A modification of the method was used. Male ICR mice (12-14 g) were anesthetized with sodium pentobarbital (50 mg/kg, i.p.). […] Five min later, various doses of nstpbp5185 (2 and 4 μg/g), aspirin (150 and 250 μg/g), or DMSO (control) were administered by i.v. through other lateral tail vein. The injected volume of the nstpbp5185, aspirin, or DMSO (control) was smaller than 10 μl. A segment of the small intestine with its mesentery attached was exteriorized through a midline incision on the abdominal wall and placed onto a transparent plastic plate for microscopic observation. Frequent rinsing of the mesentery with warm isotonic saline kept at 37° C. was performed to prevent the mesentery from drying out. Microvessels in the mesentery were observed under transillumination from a halogen lamp. Venules with diameters of 30-40 μm were selected to be irradiated to produce a microthrombus. In the epi-illumination system, light from a 100-W mercury lamp was filtered through a filter (B-2A, Nikon, Tokyo, Japan) with a dichromic mirror (DM 510, Nikon). The filtered light eliminated wavelengths below 520 nm irradiated a microvessel through an objective lens (20×). The area of irradiation was about 100 μm in diameter on the focal plane. Ten minutes after administration of the dye, the irradiation by filtered light and a timer were simultaneously started, and thrombus formation was observed on a TV-monitor. Occlusion time was recorded as the time interval for inducing thrombus formation leading to cessation of blood flow.
After giving 50 μg/g fluorescein sodium, the irradiation of mesenteric venules induced thrombus formation which is consist of activated platelets and fibrin clots. […] In the vehicle-treated group, the average TTO was approximately 143.71±4.99 sec (n=17). The group pre-treated with compound 5185 (10 μg/g), the average TTO value was 208.67±6.99 sec (n=12).

human platelets [3] = experiment: Platelet [Ca2+]i mobilization by Fura 2-AM fluorescence; assay type: cell-based; details: for collagen-evoked increase of [Ca2+]i: collagen 10 μg/ml, Fura-2-loaded platelets
Description: After centrifugating platelet-rich plasma at 500 g, 25° C. for 8 min, isolated platelets were resuspended in Ca^2+-free Tyrode solution. The platelet suspensions were protected from light and incubated with Fura 2-AM (5 μM) at 37° C. for 30 min. Human platelets were then prepared as described previously. The washed platelet count was adjusted to 3-4.5×10^8 platelets/ml. Finally, the external Ca^2+ concentration of the platelet suspensions was adjusted to 1 mM. The rise in [Ca^2+]i was measured using a fluorescence spectrophotometer (CAF 110, Jasco, Japan) at excitation wavelengths of 340 and 380 nm, and an emission wavelength of 500 nm. [Ca^2+]i was calculated from the fluorescence, using 224 nM as the Ca^2+-Fura 2 dissociation constant.

[4] = system: human platelet suspension; experiment: U46619-induced platelet aggregation in human platelet suspension; assay type: cell-based; details: for IC50: Homo sapiens; for shift of the concentration-response curve of U46619: nstpbp5185 2 and 3 μM with indomethacin, Ctkf6f2 1 μM; for U46619 needed to induce the full aggregation: platelets pretreated with 1 μM compound
[5] = system: human platelet suspension; experiment: Thromboxane B2 formation in human platelet suspension; assay type: cell-based
Description: Human platelet suspension (3.75×10^8/ml) was preincubated in the presence or absence of nstpbp5185 or aspirin for 3 min before the addition of collagen or AA. Six minutes after the addition of agonist, […] indomethacin and 2 mM EDTA were added to the reaction suspension. After centrifugation in an Eppendorf centrifuge at 14,000 g for 2 min, the thromboxane B2 (TXB2), the stable metabolite of TXA2, levels of the supernatant were measured using a competitive enzyme-immuno assay (EIA) kit according to the instructions of the manufacturer.

[6] = system: receptor tyrosine kinases; experiment: Receptor tyrosine kinases safety profile; assay type: biochemical; set-up: dose or concentration left out as unconfirmed
Description: These kinases or enzymatic assays were performed by MDS according to the standardized methods

[7] = system: human platelet suspension; experiment: Collagen-induced platelet aggregation in human platelet suspension; assay type: cell-based; details: collagen 10 μg/ml; for IC50: Platelet, washed human platelets, read-out: IC50 collagen-induced platelet aggregation in human PS
Description: as §1, §2

[8] = system: human platelet suspension; experiment: Arachidonic acid-induced platelet aggregation in human platelet suspension; assay type: cell-based; details: AA 200 μM
Description: as §1, §2

human platelets [9] = experiment: Flow cytometric analysis of P-selectin expression; assay type: cell-based; details: for U46619-induced P-selectin expression: U46619 1 μM; for collagen-induced P-selectin expression: collagen 10 μg/ml
Description: […] Then the sample was further incubated with FITC-labeled anti-CD62P in the dark at room temperature. Prior to analysis, the volume was adjusted to 1 mL/tube with Tyrode's solution. The suspensions were immediately assayed by fluorescence activated cell sorter (Becton-Dickinson, FACScan System, San Joe, Calif.) using excitation and emission wavelength of 488 and 525 nm, respectively. Data were collected from 10000 platelets per experimental group. The level of P-selectin expression was expressed as mean fluorescence intensity.

[10] = Platelet, U46619 1 μM, washed human platelets, read-out: IC50 U46619-induced aggregation
[11] = Homo sapiens, Platelet, collagen 10 μg/ml, read-out: inhibition of TXB2 compared to the control

Row | Structure (SMILES) | average time to occlusion (TTO) [2] [s] | collagen-evoked increase of [Ca2+]i (human platelets [3]) | IC50 [4, 10] [µM] | shift of the concentration-response curve of U46619 [4] | U46619 needed to induce the full aggregation [4] | inhibition at 1 µM [5, 11] [%] | effects on receptor tyrosine kinases [6] | IC50 [7] [µM] | IC50 [8] [µM] | U46619-induced P-selectin expression (human platelets [9]) | collagen-induced P-selectin expression (human platelets [9]) | also measured
1 | Cc1ccc(-c2nc3ccccc3n2Cc2ccccc2)o1 [Example 6, 1-Benzyl-2-(5-methyl-2-furyl)benzimidazole] | 208.67 ± 6.99 | markedly inhibited | ~2.5 | right-shift | 0.5 µM | 52.6 | little effects | ~1.3 | 3.9 ± 0.2 | significantly reduced | concentration-dependently reduced to baseline | IC50 ([1]; human PRP, data not shown, read-out: IC50 collagen-induced platelet aggregation in human PRP): 64.2 ± 2.5 µM; occlusion time within 70 min after administration ([2]; 4 μg g^−1 i.v.): 157.5 ± 12.5 s; time until occlusion time returned to the control value ([2]; 4 μg g^−1 i.v.): ≤ 90 min; occlusion time ([2]; 4 μg/g): 170.9 ± 28.0 s; occlusion time ([2]; first dose of 'respectively' (2 μg/g)): 110.5 ± 18.0 s; thrombin-evoked increase of [Ca2+]i (human platelets [3]; thrombin 0.1 U/ml, even at 60 μM): no effect; IC50 ([4]; Platelet, U46619-induced aggregation, platelet suspension, read-out: P.S(U46619) IC50): 2.45 µM; inhibition of aggregation induced by U46619 ([4]; human washed platelets, 1 μM compound, U46619 1 μM): could not effectively inhibit; TXB2 generation of AA-stimulated platelets ([5]; arachidonic acid 200 μM, 0.7, 2 and 6 μM): concentration-dependently inhibited; TXB2 generation of collagen-stimulated platelets ([5]; collagen 10 μg/ml, 0.7, 2 and 6 μM): concentration-dependently inhibited; % inhibition collagen ([7]; human platelet suspension, preliminary, compound concentration not given): 71.2 (n = 2) %
2 | Cc1ccc(-c2nc3ccc(F)cc3n2Cc2cccc(F)c2)o1 [Ctkf6f2, 6-fluoro-1-(3-fluorobenzyl)-2-(5-methyl-2-furyl)benzimidazole] | 267.93 ± 12.64 | concentration-dependently inhibited | 1.17 ± 0.23 | right-shift | around 2 μM | 43.9 | little effects | 3.4 ± 0.62 | 3.2 ± 0.99 | decreased | decreased | IC50 ([1]; Homo sapiens, collagen 5 μg/ml, read-out: IC50 collagen-induced aggregation in platelet-rich plasma): 31.3 ± 7.68 µM; U46619-induced calcium mobilization (human platelets [3]; U46619 1 μM, 1 μM-3 μM compound): markedly inhibited; inhibition at 1 µM ([4]; Platelet, human washed platelets, 1 μM compound, U46619 1 μM): 50%; inhibition at 0.3 µM ([5]; Homo sapiens, Platelet, collagen 10 μg/ml, 0.3 μM, read-out: inhibition of TXB2 compared to the control): 33%; inhibition at 3 µM ([5]; Homo sapiens, Platelet, collagen 10 μg/ml, 3 μM, read-out: inhibition of TXB2 compared to the control): 64.7%; inhibition at 10 µM ([5]; Homo sapiens, Platelet, collagen 10 μg/ml, 10 μM, read-out: inhibition of TXB2 compared to the control): 73.5%
